# Data taken from patent publication US20180153848A1, “CABAZITAXEL FAT EMULSION, AND PREPARATION METHOD AND USE THEREOF” (JIANGSU TASLY DIYI PHARMACEUTICAL CO., LTD., priority 2015, published 2018).
# Columns and labels:
# [1] = Investigation on the solubility of cabazitaxel in oils for injection, with low temperature challenge test; assay type: physicochemical; design: key to dissolved state in oil for injection: —: Completely insoluble; conditions: for dissolved state in oil for injection: 70° C. with stirring
# Protocol: In this Test Example, appropriate amounts of cabazitaxel were weighed, respectively placed into medium chain triglyceride for injection, soybean oil, olive oil, castor oil and palm oil at 70° C., and heated with stirring, to observe the dissolved state thereof. The solutions with the drug dissolved were stored at a condition of 4-6° C. for 72 hours, to perform a low temperature challenge test. The appearance changes of the solutions at 72 hours in the low temperature storage were observed.
# [2] = cited from earlier work
# Beagle dogs = conditions: intravenous injection of 0.3% or 0.35% Tween-80; cited from earlier work
compound,measurement,setting,value
"CO[C@H]1C(=O)[C@]2(C)[C@@H](OC)C[C@H]3OC[C@@]3(OC(C)=O)[C@H]2[C@H](OC(=O)c2ccccc2)[C@]2(O)C[C@H](OC(=O)[C@H](O)[C@@H](NC(=O)OC(C)(C)C)c3ccccc3)C(C)=C1C2(C)C [cabazitaxel, 4-acetyloxy-2α-benzoyloxy-5β,20-epoxy-1-hydroxy-7β, 10β-dimethoxy-9-oxotax-11-en-13 α-yl(2R,3S)-3-t-butoxycarbonylamino-2-hydroxy-3-phenylpropionate]",solubility in medium chain triglycerides,[1],about 50 mg/g
same,solubility in medium chain triglyceride for injection,[1]; after storage at low temperature (4-6° C.) for 72 h,about 50 mg/g
same,dissolved state in oil for injection,"[1]; castor oil, Concentration (mg/g) 10 h",cannot be fully dissolved
same,dissolved state in oil for injection,"[1]; castor oil, Concentration (mg/g) 20 h",—
same,dissolved state in oil for injection,"[1]; castor oil, Concentration (mg/g) 30 h",—
same,dissolved state in oil for injection,"[1]; castor oil, Concentration (mg/g) 40 h",—
same,dissolved state in oil for injection,"[1]; castor oil, Concentration (mg/g) 50 h",—
same,dissolved state in oil for injection,"[1]; castor oil, Concentration (mg/g) 60 h",—
same,solubility in long chain oils,"[1]; long chain oils such as soybean oil, olive oil, castor oil, palm oil",less than 10 mg/g
same,dissolved state in oil for injection,"[1]; medium chain triglyceride, Concentration (mg/g) 60 h",rapidly dissolved
same,dissolved state in oil for injection,"[1]; olive oil, Concentration (mg/g) 10 h",cannot be fully dissolved
same,dissolved state in oil for injection,"[1]; olive oil, Concentration (mg/g) 20 h",—
same,dissolved state in oil for injection,"[1]; olive oil, Concentration (mg/g) 30 h",—
same,dissolved state in oil for injection,"[1]; olive oil, Concentration (mg/g) 40 h",—
same,dissolved state in oil for injection,"[1]; olive oil, Concentration (mg/g) 50 h",—
same,dissolved state in oil for injection,"[1]; olive oil, Concentration (mg/g) 60 h",—
same,dissolved state in oil for injection,"[1]; palm oil, Concentration (mg/g) 10 h",cannot be fully dissolved
same,dissolved state in oil for injection,"[1]; palm oil, Concentration (mg/g) 20 h",—
same,dissolved state in oil for injection,"[1]; palm oil, Concentration (mg/g) 30 h",—
same,dissolved state in oil for injection,"[1]; palm oil, Concentration (mg/g) 40 h",—
same,dissolved state in oil for injection,"[1]; palm oil, Concentration (mg/g) 50 h",—
same,dissolved state in oil for injection,"[1]; palm oil, Concentration (mg/g) 60 h",—
same,dissolved state in oil for injection,"[1]; soybean oil, Concentration (mg/g) 10 h",cannot be fully dissolved
same,dissolved state in oil for injection,"[1]; soybean oil, Concentration (mg/g) 20 h",—
same,dissolved state in oil for injection,"[1]; soybean oil, Concentration (mg/g) 30 h",—
same,dissolved state in oil for injection,"[1]; soybean oil, Concentration (mg/g) 40 h",—
same,dissolved state in oil for injection,"[1]; soybean oil, Concentration (mg/g) 50 h",—
same,dissolved state in oil for injection,"[1]; soybean oil, Concentration (mg/g) 60 h",—
same,solubility in ethanol and other organic solvents,[2],soluble
same,solubility in water,[2],almost insoluble
Tween-80,grade of allergic reactions,Beagle dogs,≥ 3
